Source: ChEMBL document CHEMBL1201862, “PubChem BioAssay data set” (2004)
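Growth conditions: 96-well plates. Treatment: test compound, 48 hours, 5 concentrations. Analysis: linear interpolation between bracketing concentrations; unreached endpoints set to highest concentration. The concentration for 50% growth inhibition is given as GI50.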 Active and inactive are the calls of the source. No stated cut-off is given here; in the data, active = GI50 up to about 1.1 µM and inactive = higher.

Tests used:
Assay in all cases: NCI tumour cell line growth inhibition, 48 h
786-0 = system: 786-0
A498 = system: A498
A549 = system: A549
ACHN = system: ACHN
CAKI-1 = system: CAKI-1
CCRF-CEM = system: CCRF-CEM
COLO 205 = system: COLO 205
DMS-273 = system: DMS-273
HCT-116 = system: HCT-116
HCT-15 = system: HCT-15
HL-60 = system: HL-60
HOP-18 = system: HOP-18
HOP-62 = system: HOP-62
HOP-92 = system: HOP-92
HT-29 = system: HT-29
IGROV-1 = system: IGROV-1
K562 = system: K562
KM-20L2 = system: KM-20L2
LOX IMVI = system: LOX IMVI
LXFL 529 = system: LXFL 529
M14 = system: M14
M19-MEL = system: M19-MEL
MOLT-4 = system: MOLT-4
NCI-H23 = system: NCI-H23
NCI-H460 = system: NCI-H460
NCI-H522 = system: NCI-H522
OVCAR-8 = system: OVCAR-8
RPMI-8226 = system: RPMI-8226
RXF 393 = system: RXF 393
RXF 631 = system: RXF 631
SF-268 = system: SF-268
SF-539 = system: SF-539
SK-MEL-28 = system: SK-MEL-28
SK-MEL-5 = system: SK-MEL-5
SK-OV-3 = system: SK-OV-3
SN12C = system: SN12C
SNB-19 = system: SNB-19
SW-620 = system: SW-620
TK-10 = system: TK-10
U-251 = system: U-251
UACC-62 = system: UACC-62
UO-31 = system: UO-31
XF498 = system: XF498
DLD-1 = system: DLD-1
DMS-114 = system: DMS-114
EKVX = system: EKVX
KM12 = system: KM12
Malme-3M = system: Malme-3M
NCI-H226 = system: NCI-H226
OVCAR-3 = system: OVCAR-3
OVCAR-4 = system: OVCAR-4
OVCAR-5 = system: OVCAR-5
SF-295 = system: SF-295
SK-MEL-2 = system: SK-MEL-2
SNB-75 = system: SNB-75
SNB-78 = system: SNB-78
SR = system: SR
UACC-257 = system: UACC-257
HCC 2998 = system: HCC 2998

With `O=C1NC(=O)C(=Cc2c3ccccc3cc3ccccc23)C(=O)N1` the GI50 (786-0) was > 100 µM (inactive), the GI50 (A498) was > 100 µM (inactive) and the GI50 (A549) was > 100 µM (inactive). For the same molecule, the GI50 (ACHN) was > 100 µM (inactive), the GI50 (CAKI-1) was 47.2 µM (inactive) and the GI50 (CCRF-CEM) was 59.3 µM (inactive). For the same molecule, the GI50 (COLO 205) was > 100 µM (inactive), the GI50 (DMS-273) was > 100 µM (inactive) and the GI50 (HCT-116) was > 100 µM (inactive). The GI50 (HCT-15) was over 100 µM, the GI50 (HL-60) was 44.7 µM (inactive) and the GI50 (HOP-18) was 83.8 µM (inactive). For the same molecule, the GI50 (HOP-62) was > 100 µM (inactive), the GI50 (HOP-92) was > 100 µM (inactive) and the GI50 (HT-29) was 55.1 µM (inactive). The GI50 (IGROV-1) was > 100 µM (inactive), the GI50 (K562) was 71.3 µM (inactive) and the GI50 (KM-20L2) was > 100 µM (inactive). For the same molecule, the GI50 (LOX IMVI) was > 100 µM (inactive), the GI50 (LXFL 529) was 79.4 µM (inactive) and the GI50 (M14) was > 100 µM (inactive). The GI50 (M19-MEL) was > 100 µM (inactive), the GI50 (MOLT-4) was 55.5 µM (inactive) and the GI50 (NCI-H23) was > 100 µM (inactive). The GI50 (NCI-H460) was > 100 µM (inactive), the GI50 (NCI-H522) was > 100 µM (inactive) and the GI50 (OVCAR-8) was > 100 µM (inactive). The GI50 (RPMI-8226) was 31.6 µM (inactive), the GI50 (RXF 393) was > 100 µM (inactive) and the GI50 (RXF 631) was > 100 µM (inactive). For the same molecule, the GI50 (SF-268) was > 100 µM (inactive), the GI50 (SF-539) was > 100 µM (inactive) and the GI50 (SK-MEL-28) was > 100 µM (inactive). The GI50 (SK-MEL-5) was > 100 µM (inactive), the GI50 (SK-OV-3) was > 100 µM (inactive) and the GI50 (SN12C) was > 100 µM (inactive). The GI50 (SNB-19) was > 100 µM (inactive), the GI50 (SW-620) was > 100 µM (inactive) and the GI50 (TK-10) was > 100 µM (inactive). For the same molecule, the GI50 (U-251) was > 100 µM (inactive), the GI50 (UACC-62) was > 100 µM (inactive) and the GI50 (UO-31) was > 100 µM (inactive). For the same molecule, the GI50 (XF498) was > 100 µM (inactive).
`COc1ccccc1NC(=O)C1=C(C)NC(C)=C(C(=O)Nc2ccccc2OC)C1c1ccc([N+](=O)[O-])cc1` was tested, and the GI50 (786-0) was 99.5 µM (inactive), the GI50 (A498) was > 100 µM (inactive) and the GI50 (A549) was > 100 µM (inactive). The GI50 (ACHN) was 52.8 µM (inactive), the GI50 (CAKI-1) was 21.7 µM (inactive) and the GI50 (CCRF-CEM) was 19.5 µM (inactive). The GI50 (COLO 205) was 56.2 µM (inactive), the GI50 (DLD-1) was 46.6 µM (inactive) and the GI50 (DMS-114) was 9.12 µM (inactive). For the same molecule, the GI50 (DMS-273) was 86.7 µM (inactive), the GI50 (EKVX) was 82.6 µM (inactive) and the GI50 (HCT-116) was 60.5 µM (inactive). The GI50 (HCT-15) was over 100 µM, the GI50 (HL-60) was 39.2 µM (inactive) and the GI50 (HOP-18) was > 100 µM (inactive). For the same molecule, the GI50 (HOP-62) was > 100 µM (inactive), the GI50 (HT-29) was 80.5 µM (inactive) and the GI50 (IGROV-1) was > 100 µM (inactive). For the same molecule, the GI50 (K562) was 49.3 µM (inactive), the GI50 (KM-20L2) was > 100 µM (inactive) and the GI50 (KM12) was 51.6 µM (inactive). For the same molecule, the GI50 (LOX IMVI) was 48.9 µM (inactive), the GI50 (LXFL 529) was 48.2 µM (inactive) and the GI50 (M14) was 85.7 µM (inactive). The GI50 (MOLT-4) was 7.23 µM (inactive), the GI50 (Malme-3M) was > 100 µM (inactive) and the GI50 (NCI-H226) was > 100 µM (inactive). The GI50 (NCI-H23) was 58.6 µM (inactive), the GI50 (NCI-H460) was 28.8 µM (inactive) and the GI50 (NCI-H522) was 24.4 µM (inactive). The GI50 (OVCAR-3) was > 100 µM (inactive), the GI50 (OVCAR-4) was 56.2 µM (inactive) and the GI50 (OVCAR-5) was 22.4 µM (inactive). The GI50 (OVCAR-8) was > 100 µM (inactive), the GI50 (RPMI-8226) was 18.5 µM (inactive) and the GI50 (RXF 393) was 60.4 µM (inactive). The GI50 (RXF 631) was 56.8 µM (inactive), the GI50 (SF-268) was > 100 µM (inactive) and the GI50 (SF-295) was 13.4 µM (inactive). The GI50 (SF-539) was > 100 µM (inactive), the GI50 (SK-MEL-28) was 27 µM (inactive) and the GI50 (SK-MEL-2) was 74.5 µM (inactive). For the same molecule, the GI50 (SK-MEL-5) was 30.7 µM (inactive), the GI50 (SK-OV-3) was > 100 µM (inactive) and the GI50 (SN12C) was > 100 µM (inactive). The GI50 (SNB-19) was 89.1 µM (inactive), the GI50 (SNB-75) was > 100 µM (inactive) and the GI50 (SNB-78) was > 100 µM (inactive). For the same molecule, the GI50 (SR) was 67.5 µM (inactive), the GI50 (SW-620) was 93.1 µM (inactive) and the GI50 (TK-10) was 74.5 µM (inactive). The GI50 (U-251) was 86.1 µM (inactive), the GI50 (UACC-257) was > 100 µM (inactive) and the GI50 (UACC-62) was 59.6 µM (inactive). For the same molecule, the GI50 (XF498) was 3.5 µM (inactive).
For `N#CC1(CCCI)CCCC1`, the GI50 (A498) was 35.9 µM (inactive), the GI50 (A549) was 20.6 µM (inactive) and the GI50 (ACHN) was 21.4 µM (inactive). The GI50 (CCRF-CEM) was 11.5 µM (inactive), the GI50 (COLO 205) was 27.8 µM (inactive) and the GI50 (DLD-1) was 19.1 µM (inactive). For the same molecule, the GI50 (DMS-114) was 3.72 µM (inactive), the GI50 (DMS-273) was 4.55 µM (inactive) and the GI50 (EKVX) was 47.4 µM (inactive). For the same molecule, the GI50 (HCC 2998) was 33.7 µM (inactive), the GI50 (HCT-116) was 4.18 µM (inactive) and the GI50 (HCT-15) was 14.5 µM. The GI50 (HL-60) was 6.1 µM (inactive), the GI50 (HOP-18) was 13.5 µM (inactive) and the GI50 (HOP-92) was 15.6 µM (inactive). For the same molecule, the GI50 (HT-29) was 15.2 µM (inactive), the GI50 (IGROV-1) was > 100 µM (inactive) and the GI50 (K562) was 27.7 µM (inactive). The GI50 (KM-20L2) was 22.6 µM (inactive), the GI50 (KM12) was 17.5 µM (inactive) and the GI50 (LOX IMVI) was 3.76 µM (inactive). The GI50 (LXFL 529) was 23.2 µM (inactive), the GI50 (M14) was 5.83 µM (inactive) and the GI50 (M19-MEL) was 5.36 µM (inactive). The GI50 (MOLT-4) was 13.8 µM (inactive), the GI50 (Malme-3M) was 18.8 µM (inactive) and the GI50 (NCI-H23) was 9.79 µM (inactive). The GI50 (NCI-H460) was 2.92 µM (inactive), the GI50 (NCI-H522) was 3.24 µM (inactive) and the GI50 (OVCAR-3) was 16 µM (inactive). The GI50 (OVCAR-5) was 25.1 µM (inactive), the GI50 (OVCAR-8) was 51.1 µM (inactive) and the GI50 (RXF 393) was 11 µM (inactive). The GI50 (RXF 631) was 1.34 µM (inactive), the GI50 (SF-268) was 12.6 µM (inactive) and the GI50 (SF-295) was 29.4 µM (inactive). For the same molecule, the GI50 (SF-539) was 15.5 µM (inactive), the GI50 (SK-MEL-28) was 16.5 µM (inactive) and the GI50 (SK-MEL-2) was 15.9 µM (inactive). For the same molecule, the GI50 (SK-MEL-5) was 12.9 µM (inactive), the GI50 (SK-OV-3) was 64.4 µM (inactive) and the GI50 (SN12C) was 12.3 µM (inactive). For the same molecule, the GI50 (SNB-19) was 15.8 µM (inactive), the GI50 (SNB-75) was 1.53 µM (inactive) and the GI50 (SNB-78) was 20.1 µM (inactive). The GI50 (SR) was 15.4 µM (inactive), the GI50 (SW-620) was 10.7 µM (inactive) and the GI50 (TK-10) was 41.9 µM (inactive). For the same molecule, the GI50 (U-251) was 13.4 µM (inactive), the GI50 (UACC-257) was 22.6 µM (inactive) and the GI50 (UACC-62) was 11 µM (inactive). For the same molecule, the GI50 (UO-31) was 27.9 µM (inactive) and the GI50 (XF498) was 18.6 µM (inactive).
